Assay results as given in patent US11312721B2 (priority 2015, dated 2022).
Entries after “also recorded” stand apart in the source; their conditions may differ. Read-outs that look alike come from different tables or passages of the source.

How the values were obtained:
aged-impaired (AI) rats [1] = experiment: Morris water maze behavioral task; type: in vivo, rat; settings: 100 μg ICV
Description: The effects of 6,6 dimethyl-3-(3-hydroxypropyl)thio-1-(thiazol-2-yl)-6,7-dihydro-2-benzothiophen-4(5H)-one on the in vivo spatial memory retention of aged-impaired (AI) rats were assessed in a Morris water maze behavioral task. A water maze is a pool surrounded with a novel set of patterns relative to the maze.
Cognitively impaired aged rats were implanted unilaterally with a cannula into the lateral ventricle. Stereotaxic coordinates were 1.0 mm posterior to bregma, 1.5 mm lateral to midline, and 3.5 mm ventral to the skull surface. After about a week of recovery, the rats were pre-trained in a water maze for 2 days (6 trials per day) to locate a submerged escape platform hidden underneath the surface of the pool, in which the escape platform location varied from day to day. No intracerebroventricular (ICV) infusion was given during pre-training.
After pre-training, rats received ICV infusion of either 100 μg 6,6 dimethyl-3-(3-hydroxypropyl)thio-1-(thiazol-2-yl)-6,7-dihydro-2-benzothiophen-4(5H)-one (n=6) in 5 μl DMSO or vehicle DMSO (n=5) 40 min prior to water maze training and testing. Training consisted of 8 trials per day for 2 days where the hidden escape platform remained in the same location. Rats were given 60 seconds to locate the platform with a 60 seconds inter-trial interval. The rats were given a probe test (120 seconds) 24 hr. after the end of training where the escape platform was removed. During the training, there were 4 blocks, where each block had 4 training trials.
During a test trial 24 hr. after training, the escape platform was removed. The search/swim pattern of the rats was used to measure whether the rats remember where the escape platform was located during pre-trial training in order to test for the long-term memory of the rats. In this trial, “target annulus” is a designated area 1.5 times the size of the escape platform around the area where the platform was located during pre-trial training. “Opposite annulus” is a control area of the same size as the size of the target annulus, which is located opposite to the target annulus in the pool. If the rats had good long term memory, they would tend to search in the area surrounding the location where the platform was during the pre-trial training (i.e., the “target” annulus; and not the “opposite” annulus). “Time in annulus” is the amount of time in seconds that the rat spent in the target or opposite annulus area. “Number (#) of crossings” in annulus is the number of times the rat swam across the target or opposite annulus area.

α5-containing GABAA R = α5-containing GABAA R (Homo sapiens, UniProt P18507+P31644); settings: (EC20); cited from earlier work
GABAA α5 receptor = target: T1, GABAA α5 receptor (Rattus norvegicus, UniProt P19969); experiment: GABAA α5 receptor occupancy in vivo with Ro 15-4513 tracer; design: species or system Long Evans rats; settings: for effect on Ro 15-4513 binding in hippocampus and cerebellum: 0.01-10 mg/kg
T1 construct: from tissue
Text: (§1) Food and water were available ad libitum.

[2] = type: in vivo, Long Evans rats; settings: i.v.
Description: as §1
For plasma exposures, blood samples were centrifuged at 14000 rpm for 16 minutes. After centrifuging, 50 ul of supernatant (plasma) from each sample was added to 200 μl of acetonitrile plus 0.1% formic acid. […] Samples were sonicated for 5 minutes in an ultrasonic water bath, followed by centrifugation for 30 minutes, at 16000 RPM. 100 ul of supernatant was removed from each sample vial and placed in a new glass auto sample vial, followed by the addition of 300 μl of sterile water (pH 6.5).
Additional studies were conducted in aged Long-Evans rats in order to determine the exposures at the behaviorally relevant doses in the cognition studies. Exposure in young Long-Evans rats was also determined to bridge with the receptor occupancy studies that were conducted in young Long-Evans rats. Exposures in young and aged Long-Evans rats were relatively similar (Table 4, FIG. 4).

aged-impaired (AI) rats [3] = experiment: Radial Arm Maze (RAM) behavioral task, spatial memory retention; type: in vivo, rat
Description: The effects of methyl 3,5-diphenylpyridazine-4-carboxylate on the in vivo spatial memory retention of aged-impaired (AI) rats were assessed in a Radial Arm Maze (RAM) behavioral task using vehicle control and four different dosage levels of methyl 3,5-diphenylpyridazine-4-carboxylate ([…]). RAM behavioral tasks were performed on eight AI rats. All five treatment conditions (vehicle and four dosage levels) were tested on all eight rats.
The RAM apparatus used consisted of eight equidistantly-spaced arms. An elevated maze arm (7 cm width×75 cm length) projected from each facet of an octagonal center platform (30 cm diameter, 51.5 cm height). Clear side walls on the arms were 10 cm high and were angled at […] to form a trough. A food well (4 cm diameter, 2 cm deep) was located at the distal end of each arm. Froot Loops™ (Kellogg Company) were used as rewards. Blocks constructed of Plexiglas™ (30 cm height×12 cm width) could be positioned to prevent entry to any arm. Numerous extra maze cues surrounding the apparatus were also provided.
The AI rats were initially subjected to a pre-training test (Chappell et al. Neuropharmacology 37: 481-487, 1998). The pre-training test consisted of a habituation phase (4 days), a training phase on the standard win-shift task (18 days) and another training phase (14 days) in which a brief delay was imposed between presentation of a subset of arms designated by the experimenter (e.g., 5 arms available and 3 arms blocked) and completion of the eight-arm win-shift task (i.e., with all eight arms available).
In the habituation phase, rats were familiarized to the maze for an 8-minute session on four consecutive days. In each of these sessions, food rewards were scattered on the RAM, initially on the center platform and arms and then progressively confined to the arms. After this habituation phase, a standard training protocol was used, in which a food pellet was located at the end of each arm. Rats received one trial each day for 18 days. Each daily trial terminated when all eight food pellets had been obtained or when either 16 choices were made or 15 minutes had elapsed. After completion of this training phase, a second training phase was carried out in which the memory demand was increased by imposing a brief delay during the trial. At the beginning of each trial, three arms of the eight-arm maze were blocked. Rats were allowed to obtain food on the five arms to which access was permitted during this initial “information phase” of the trial. Rats were then removed from the maze for 60 seconds, during which time the barriers on the maze were removed, thus allowing access to all eight arms. Rats were then placed back onto the center platform and allowed to obtain the remaining food rewards during this “retention test” phase of the trial. […]

MAM-treated rats = settings: cited from earlier work
[4] = probe test 24 hr. after training

T1 sequence (P19969 32-464 limits assumed): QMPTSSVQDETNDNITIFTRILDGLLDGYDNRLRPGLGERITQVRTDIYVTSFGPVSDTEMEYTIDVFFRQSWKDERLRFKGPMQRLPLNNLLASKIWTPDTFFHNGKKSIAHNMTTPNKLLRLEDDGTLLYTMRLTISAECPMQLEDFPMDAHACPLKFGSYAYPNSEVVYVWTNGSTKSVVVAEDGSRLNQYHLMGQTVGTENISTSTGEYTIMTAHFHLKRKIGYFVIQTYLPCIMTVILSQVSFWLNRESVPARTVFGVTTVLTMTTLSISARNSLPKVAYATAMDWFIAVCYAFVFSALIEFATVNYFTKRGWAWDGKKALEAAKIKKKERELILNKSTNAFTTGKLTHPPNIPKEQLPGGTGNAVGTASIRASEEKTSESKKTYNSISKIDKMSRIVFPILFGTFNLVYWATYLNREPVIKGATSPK
α5-containing GABAA R, sequence (P31644 32-462): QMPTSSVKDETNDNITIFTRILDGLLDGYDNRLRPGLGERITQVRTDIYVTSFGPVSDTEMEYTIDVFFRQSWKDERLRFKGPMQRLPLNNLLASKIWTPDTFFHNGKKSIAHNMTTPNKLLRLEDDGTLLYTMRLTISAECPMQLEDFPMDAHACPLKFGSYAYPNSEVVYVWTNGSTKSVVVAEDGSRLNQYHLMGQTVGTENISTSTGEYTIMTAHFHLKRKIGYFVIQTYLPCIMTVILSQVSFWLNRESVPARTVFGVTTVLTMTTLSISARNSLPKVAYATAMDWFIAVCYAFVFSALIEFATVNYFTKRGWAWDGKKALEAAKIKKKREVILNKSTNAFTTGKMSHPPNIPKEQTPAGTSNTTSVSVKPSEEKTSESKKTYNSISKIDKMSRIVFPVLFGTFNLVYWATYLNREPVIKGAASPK
α5-containing GABAA R, sequence (P28472 26-473 partner): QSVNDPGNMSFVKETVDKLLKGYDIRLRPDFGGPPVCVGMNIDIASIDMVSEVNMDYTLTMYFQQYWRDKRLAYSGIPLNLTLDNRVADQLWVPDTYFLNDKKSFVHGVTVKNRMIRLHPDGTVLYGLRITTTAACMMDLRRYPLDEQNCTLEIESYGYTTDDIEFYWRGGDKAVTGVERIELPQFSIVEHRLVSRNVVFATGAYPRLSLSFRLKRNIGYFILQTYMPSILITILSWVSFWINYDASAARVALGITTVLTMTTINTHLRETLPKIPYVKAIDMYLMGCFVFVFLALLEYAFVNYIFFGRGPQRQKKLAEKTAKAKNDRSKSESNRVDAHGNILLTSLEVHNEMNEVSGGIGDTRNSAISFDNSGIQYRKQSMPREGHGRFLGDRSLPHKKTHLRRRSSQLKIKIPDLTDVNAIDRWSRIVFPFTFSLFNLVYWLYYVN
α5-containing GABAA R, sequence (P18507 40-475): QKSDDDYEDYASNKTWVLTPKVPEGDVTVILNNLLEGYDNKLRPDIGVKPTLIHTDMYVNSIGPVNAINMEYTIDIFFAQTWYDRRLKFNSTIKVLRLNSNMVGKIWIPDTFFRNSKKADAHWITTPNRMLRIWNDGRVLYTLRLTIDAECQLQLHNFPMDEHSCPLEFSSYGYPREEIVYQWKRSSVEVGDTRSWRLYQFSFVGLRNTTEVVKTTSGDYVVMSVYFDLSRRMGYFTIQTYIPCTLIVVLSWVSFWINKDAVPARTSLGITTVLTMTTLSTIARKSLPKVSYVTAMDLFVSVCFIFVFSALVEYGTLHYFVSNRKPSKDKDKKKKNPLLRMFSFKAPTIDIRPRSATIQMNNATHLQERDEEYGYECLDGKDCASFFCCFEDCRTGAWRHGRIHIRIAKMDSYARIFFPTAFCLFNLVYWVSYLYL

With CC1(C)CC(=O)c2c(SCCCO)sc(-c3nccs3)c2C1 [6,6 dimethyl-3-(3-hydroxypropyl)thio-1-(thiazol-2-yl)-6,7-dihydro-2-benzothiophen-4(5H)-one] the “time to find the escape platform” value (aged-impaired (AI) rats [1]; block 1 (beginning of training)) was “about 24 seconds”, the “time to find the escape platform” value (aged-impaired (AI) rats [1]; block 4 (end of training)) was “about 9.6 seconds” and the “number of crossings of target annulus compared with opposite annulus” value (aged-impaired (AI) rats [1]; [4]) was “crossed the “target annulus” more often”. The “time in target annulus compared with opposite annulus” value (aged-impaired (AI) rats [1]; [4]) was “spent significantly more time in the target annulus”.

In the case of COC(=O)c1c(-c2ccccc2)cnnc1-c1ccccc1 [Methyl 3,5-diphenylpyridazine-4-carboxylate], the “α5 in vitro efficacy” value (α5-containing GABAA R) is given as “+27”, the “effect on Ro 15-4513 binding in hippocampus and cerebellum” value (GABAA α5 receptor; i.v.) is given as “dose-dependently reduced Ro 15-4513 binding in hippocampus, without affecting cerebellum levels of Ro 15-4513; also recorded: blocked the binding of Ro154513 in the hippocampus but did not affect binding of Ro15413 in the cerebellum” and the “RO required for cognitive efficacy in this model” value (GABAA α5 receptor; from exposure in aged rats at 3 mg/kg, i.p.) is given as 30-40%. For the same compound, the “GABAA α5 receptors occupied at behaviorally active exposures” value (GABAA α5 receptor; hippocampus, exposures behaviorally active in aged-impaired rats) was “about 32%”, the “ED50 of receptor occupancy, ratio method” value (GABAA α5 receptor; i.v., hippocampus/cerebellum ratio method) was 1.8 mg/kg and the receptor occupancy at 1 mg/kg (GABAA α5 receptor; rat, iv, 1 mg/kg, i.v., depending on method used to determine RO, read-out: receptor occupancy at an exposure of 180 ng/g in hippocampus) was 32 to 39%. The receptor occupancy at 10 mg/kg (GABAA α5 receptor; rat, iv, 10 mg/kg) was over 90%, the ED50 (GABAA α5 receptor; rat, iv, read-out: ED50 of receptor occupancy, using L-755,608 to define occupancy) was 1.1 mg/kg and the “fold increase in hippocampal exposure” value ([2]; dose from 0.1 to 1 mg/kg) was 12 fold. For the same compound, the “fold increase in hippocampal exposure” value ([2]; dose from 1 to 10 mg/kg) was about 5 fold, the “fold increase in plasma exposure” value ([2]; dose from 1 to 10 mg/kg) was 12 fold and the “average no. of errors ± SEM in retention test” value (aged-impaired (AI) rats [3]; 3 mg/kg ip, two-hour delay RAM, AI rats) was 1.31±0.40. For the same compound, the “memory performance relative to vehicle control” value (aged-impaired (AI) rats [3]; 3 mg/kg ip, two-hour delay RAM, t(7)=4.233, p=0.004) was “significantly improved memory performance”.

For C#Cc1ccc2c(c1)C(c1ccccc1F)=N[C@H](C)c1c(C(=O)OCC)ncn1-2 [SH-053-2′F—R—CH3], the “number of spontaneously active DA neurons in the VTA” value (MAM-treated rats; MAM rats, systemic or infused into the ventral HPC) is listed as “reduces the number of spontaneously active DA neurons in the ventral tegmental area (VTA) of MAM rats to levels observed in saline-treated rats”, the “locomotor response to amphetamine” value (MAM-treated rats; MAM-treated rats) is listed as “is reduced” and the “cortical-evoked responses of HPC neurons” value (MAM-treated rats; saline-treated and MAM-treated animals) is listed as “diminished cortical-evoked responses”.

For CCOC(=O)c1ncn2c1Cn1c(C)nnc1-c1cc(OC)ccc1-2 [ethyl 3-methoxy-7-methyl-9H-benzo[f]imidazo[1,5-a][1,2,4]tri], the “effect on Ro 15-4513 binding in hippocampus and cerebellum” value (GABAA α5 receptor; i.v.) was “reduced Ro 15-4513 binding in hippocampus, without affecting cerebellum levels of Ro 15-4513”, the “GABAA α5 receptor occupancy” value (GABAA α5 receptor; 10 mg/kg, i.v.) was over 90% and the “memory performance relative to vehicle control” value (aged-impaired (AI) rats [3]; 3 mg/kg, four-hour delay RAM, t(7)=4.13, p=0.004, or t(7)=3.08, p=0.018) was “significantly improved memory performance”. For the same compound, the “memory performance relative to vehicle control” value (aged-impaired (AI) rats [3]; 10 mg/kg, four-hour delay RAM, t(7)=2.82, p=0.026) was “significantly improved memory performance”.
